Test results reported in PubChem BioAssay (NCI).
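Where inhibition never reached the appropriate level, the endpoint shown equals the highest concentration tested. Otherwise, values were interpolated linearly from a five-concentration, 48-hour dose response in 96-well plates. Definition used: TGI = concentration required for complete inhibition of growth.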

Columns and labels:
Assay in all cases: NCI tumour cell line growth inhibition, 48 h
[1] = test system: UO-31 renal
[2] = test system: OVCAR-3 ovarian
[3] = test system: NCI-H522 lung
[4] = test system: HOP-62 NSCLC
[5] = test system: OVCAR-4 ovarian
[6] = test system: SF-268 CNS
[7] = test system: A498 renal
[8] = test system: COLO 205 colon
[9] = test system: HCT-116 colon
[10] = test system: HCT-15 colon
[11] = test system: SK-MEL-5 melanoma
[12] = test system: SK-OV-3 ovarian
[13] = test system: HL-60(TB) leukemia
[14] = test system: MCF7 breast
[15] = test system: UACC-257 melanoma
[16] = test system: KM12 colon
[17] = test system: MDA-MB-231 breast
[18] = test system: OVCAR-5 ovarian
[19] = test system: MOLT-4 leukemia
[20] = test system: T-47D breast
[21] = test system: SF-539 CNS
[22] = test system: HOP-92 NSCLC
[23] = test system: IGROV1 ovarian
[24] = test system: NCI/ADR-RES ovarian
[25] = test system: HCC-2998 colon
[26] = test system: A549 NSCLC
[27] = test system: RXF 393 renal
[28] = test system: SK-MEL-2 melanoma
[29] = test system: ACHN renal
[30] = test system: K-562 leukemia
[31] = test system: NCI-H226 lung
[32] = test system: SW-620 colon
[33] = test system: M14 melanoma
[34] = test system: RPMI-8226 leukemia
[35] = test system: TK-10 renal
[36] = test system: CCRF-CEM leukemia
[37] = test system: UACC-62 melanoma
[38] = test system: SNB-19 CNS
[39] = test system: 786-0 renal
[40] = test system: U251 CNS
[41] = test system: SK-MEL-28 melanoma
[42] = test system: SF-295 CNS
[43] = test system: OVCAR-8 ovarian
[44] = test system: SN12C renal
[45] = test system: PC-3 prostate
[46] = test system: HT29 colon
[47] = test system: MDA-MB-435
[48] = test system: SR leukemia
[49] = test system: BT-549 breast
[50] = test system: EKVX NSCLC
[51] = test system: HS 578T breast
[52] = test system: SNB-75 CNS
[53] = test system: LOX IMVI melanoma
[54] = test system: DU-145 prostate
[55] = test system: NCI-H23 lung
[56] = test system: NCI-H460 lung
[57] = test system: MALME-3M melanoma

COc1ccc2c(c1OC)OC[C@@H](C1=CC(=O)C=C(O)C1=O)C2
TGI [1]: 25.9 µM | TGI [2]: 26.3 µM | TGI [3]: 8.9 µM | TGI [4]: 64.5 µM | TGI [5]: 24.1 µM | TGI [6]: 38.1 µM | TGI [7]: 32.1 µM | TGI [8]: 43.3 µM | TGI [9]: 17.4 µM | TGI [10]: 31 µM | TGI [11]: 27 µM | TGI [12]: 30.3 µM | TGI [13]: 1.88 µM | TGI [14]: 27 µM | TGI [15]: 26.1 µM | TGI [16]: 27.5 µM | TGI [17]: 10.4 µM | TGI [18]: 40 µM | TGI [19]: 5.31 µM | TGI [20]: 20.3 µM | TGI [21]: 26.8 µM | TGI [22]: 4.12 µM | TGI [23]: 25.2 µM | TGI [24]: 79.1 µM | TGI [25]: 32.3 µM | TGI [26]: 35.8 µM | TGI [27]: 19.1 µM | TGI [28]: 29 µM | TGI [29]: 11.3 µM | TGI [30]: 11.8 µM | TGI [31]: 46.7 µM | TGI [32]: 26.2 µM | TGI [33]: 26.8 µM | TGI [34]: 5.18 µM | TGI [35]: 27.3 µM | TGI [36]: 3.81 µM | TGI [37]: 25.1 µM | TGI [38]: 34.7 µM | TGI [39]: 16.9 µM | TGI [40]: 24.5 µM | TGI [41]: > 58.5 µM | TGI [42]: 30.7 µM | TGI [43]: 69.3 µM | TGI [44]: 37 µM | TGI [45]: 26.8 µM | TGI [46]: 55.8 µM | TGI [47]: 23.9 µM | TGI [48]: 19.2 µM | TGI [49]: 26 µM | TGI [50]: 18.3 µM | TGI [51]: 60.1 µM | TGI [52]: 23.6 µM | TGI [53]: 13.1 µM | TGI [54]: 29.3 µM | TGI [55]: 33.8 µM | TGI [56]: 27.4 µM | TGI [57]: 24.7 µM
